PubChem BioAssay (NCI)
“And” between values parts separate entries of the source, which are not always exact repeats. Identical values can stand only once.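 96-well plates; 48 h exposure; 5 concentrations. Endpoints by linear interpolation between flanking doses. Not reached: highest tested concentration assigned. Abbreviation: GI50, concentration required for 50% inhibition of growth. Definition used: TGI = concentration required for complete inhibition of growth.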

How the values were obtained:
Experiment in all cases: inhibition of tumour cell growth, NCI panel, 48 h
[1] = tested on: SK-OV-3 ovarian
[2] = tested on: SK-MEL-28 melanoma
[3] = tested on: U251 CNS
[4] = tested on: OVCAR-3 ovarian
[5] = tested on: TK-10 renal
[6] = tested on: NCI-H460 lung
[7] = tested on: SN12C renal
[8] = tested on: SNB-75 CNS
[9] = tested on: SF-539 CNS
[10] = tested on: UACC-62 melanoma
[11] = tested on: MOLT-4 leukemia
[12] = tested on: OVCAR-8 ovarian
[13] = tested on: DU-145 prostate
[14] = tested on: COLO 205 colon
[15] = tested on: MDA-MB-231 breast
[16] = tested on: K-562 leukemia
[17] = tested on: MDA-MB-435
[18] = tested on: IGROV1 ovarian
[19] = tested on: SK-MEL-2 melanoma
[20] = tested on: 786-0 renal
[21] = tested on: A549 NSCLC
[22] = tested on: HS 578T breast
[23] = tested on: UO-31 renal
[24] = tested on: CCRF-CEM leukemia
[25] = tested on: M14 melanoma
[26] = tested on: KM12 colon
[27] = tested on: OVCAR-5 ovarian
[28] = tested on: NCI/ADR-RES ovarian
[29] = tested on: UACC-257 melanoma
[30] = tested on: LOX IMVI melanoma
[31] = tested on: NCI-H522 lung
[32] = tested on: HOP-62 NSCLC
[33] = tested on: OVCAR-4 ovarian
[34] = tested on: HL-60(TB) leukemia
[35] = tested on: PC-3 prostate
[36] = tested on: SF-295 CNS
[37] = tested on: SR leukemia
[38] = tested on: HCT-116 colon
[39] = tested on: SNB-19 CNS
[40] = tested on: MALME-3M melanoma
[41] = tested on: ACHN renal
[42] = tested on: SW-620 colon
[43] = tested on: SK-MEL-5 melanoma
[44] = tested on: HCC-2998 colon
[45] = tested on: MDA-N

COc1cccc(-c2cc(=O)c3cc(N(C)C)ccc3[nH]2)c1
GI50 [1]: 0.025 µM and 0.00359 µM | GI50 [2]: 0.0209 µM and 0.00582 µM | TGI [2]: > 100 µM | GI50 [3]: 0.0182 µM and 0.00594 µM | GI50 [4]: 0.0153 µM and 0.00266 µM | TGI [5]: 65 µM and 34.2 µM | GI50 [6]: 0.0342 µM and 0.0169 µM | TGI [7]: > 100 µM | GI50 [8]: 0.0271 µM and 0.00869 µM | TGI [8]: > 100 µM | GI50 [9]: 0.0106 µM and 0.00332 µM | TGI [9]: 0.0351 µM and 0.022 µM and 0.0128 µM | GI50 [10]: 0.0163 µM and 0.00363 µM | TGI [10]: > 100 µM | GI50 [11]: 0.0435 µM and 0.00642 µM | TGI [11]: 0.0401 µM and 0.0259 µM | TGI [12]: 94.6 nM [middle of 4 runs] | GI50 [13]: 0.034 µM and 0.0073 µM | TGI [13]: 0.302 µM and 0.369 µM and 0.8 µM | GI50 [14]: 0.0283 µM and 0.0125 µM | TGI [14]: 0.0875 µM and 0.0317 µM | GI50 [15]: 0.0107 µM | GI50 [16]: 0.00937 µM and 0.00404 µM | TGI [16]: 0.0887 µM | TGI [17]: 0.0103 µM and 0.00361 µM | GI50 [18]: 0.0892 µM and 0.0423 µM and 0.0174 µM | TGI [18]: > 100 µM | GI50 [19]: 0.0359 µM and 0.00735 µM | GI50 [20]: 0.0368 µM and 0.0096 µM | TGI [20]: > 100 µM and 36.7 µM | TGI [21]: > 100 µM | GI50 [22]: 0.0221 µM and 0.00461 µM | GI50 [23]: 0.0642 µM and 0.0126 µM and 0.0132 µM | TGI [23]: > 100 µM and 78.1 µM | GI50 [24]: 0.0135 µM and 0.00524 µM | GI50 [25]: 0.0234 µM and 0.00682 µM | TGI [25]: > 100 µM | GI50 [26]: 0.0334 µM and 0.0159 µM | TGI [26]: 1.06 µM and 0.119 µM and 0.766 µM | TGI [27]: > 100 µM | GI50 [28]: 0.0144 µM and 0.00533 µM | TGI [28]: 0.0318 µM and 0.021 µM and 0.0222 µM | TGI [29]: > 100 µM | GI50 [30]: 0.0354 µM and 0.012 µM | GI50 [31]: 0.0184 µM and 0.00392 µM | TGI [31]: 0.0445 µM and 0.0205 µM | TGI [32]: > 100 µM | TGI [33]: > 100 µM | GI50 [34]: 0.0111 µM and 0.00264 µM | TGI [34]: 0.0621 µM and 0.00853 µM | GI50 [35]: 0.0275 µM and 0.00806 µM | TGI [35]: > 100 µM | GI50 [36]: 0.0169 µM and 0.0296 µM and 0.00485 µM | GI50 [37]: 0.00495 µM and 0.00224 µM | TGI [37]: 0.188 µM and 0.0233 µM | GI50 [38]: 0.0155 µM and 0.00433 µM | TGI [39]: 0.825 µM and 0.843 µM | GI50 [40]: 0.00987 µM and 0.00403 µM | TGI [40]: > 100 µM | GI50 [41]: 0.0892 µM and 0.011 µM | TGI [41]: > 100 µM and 51.9 µM | GI50 [42]: 0.0173 µM and 0.00382 µM | TGI [42]: > 100 µM | GI50 [43]: 0.0125 µM and 0.00356 µM | GI50 [44]: 0.0472 µM and 0.0229 µM | GI50 [45]: 0.00154 µM | TGI [45]: 0.00774 µM and 0.00529 µM
